Values joined by “and” are separate entries in the source; they are usually repeats but may differ in a detail not shown here. Equal values may be shown once.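 Results reflect a 48-hour exposure of cells in 96-well plates to compound at five concentrations. GI50: concentration for 50% inhibition of growth. TGI is the concentration that stops growth completely.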 Where a SMILES comes first, the peptide text is derived from it. Bridges are numbered along the chain shown (N, C = ends). [ ]: non-standard residue; d: D form. aThr = C[C@H](O)[C@H](N)C(=O)O
How the values were obtained:
Assay in all cases: inhibition of tumour cell growth, NCI panel, 48 h
SNB-75 CNS = system: SNB-75 CNS
SK-OV-3 ovarian = system: SK-OV-3 ovarian
SNB-19 CNS = system: SNB-19 CNS
NCI-H226 lung = system: NCI-H226 lung
MDA-MB-231 breast = system: MDA-MB-231 breast
SF-539 CNS = system: SF-539 CNS
HOP-62 NSCLC = system: HOP-62 NSCLC
SF-295 CNS = system: SF-295 CNS
786-0 renal = system: 786-0 renal
CCRF-CEM leukemia = system: CCRF-CEM leukemia

| Compound | GI50 (SNB-75 CNS) | TGI (SNB-75 CNS) | GI50 (SK-OV-3 ovarian) | TGI (SK-OV-3 ovarian) | GI50 (SNB-19 CNS) | TGI (SNB-19 CNS) | GI50 (NCI-H226 lung) | TGI (NCI-H226 lung) | GI50 (MDA-MB-231 breast) | TGI (MDA-MB-231 breast) | GI50 (SF-539 CNS) | TGI (SF-539 CNS) | GI50 (HOP-62 NSCLC) | TGI (HOP-62 NSCLC) | GI50 (SF-295 CNS) | TGI (SF-295 CNS) | GI50 (786-0 renal) | TGI (786-0 renal) | TGI (CCRF-CEM leukemia) [µM] | GI50 (CCRF-CEM leukemia) [µM] |
| --- | --- | --- | --- | --- | --- | --- | --- | --- | --- | --- | --- | --- | --- | --- | --- | --- | --- | --- | --- | --- |
| CSc1nc2nc(-c3ccccc3)c(C)c-2c2n1C(C)C(=O)N2 (stereo unspecified) | 43.2 µM | > 100 µM | 8.43 µM | 59.1 µM | 38.5 µM | > 100 µM | 35.7 µM | > 100 µM | 83.4 µM | > 100 µM | 86.7 µM | > 100 µM | 44.7 µM | > 100 µM | 24 µM | > 100 µM | 29.2 µM | > 100 µM |  |  |
| OCC1CC[N-]CC1.OCC1CC[N-]CC1.[Cl][Pt+2]([Cl])([Cl])[Cl] |  |  | 36.9 µM |  | 48 µM |  | 39.5 µM |  | 33.6 µM |  | 41.9 µM |  | 33.1 µM |  |  |  | 34.9 µM |  |  |  |
| c1ccc(C(c2ccccc2)c2ccccn2)cc1 |  | > 100 µM |  | > 100 µM |  | > 100 µM |  | > 100 µM |  |  |  | > 100 µM |  | > 100 µM |  | > 100 µM |  | > 100 µM | > 100 |  |
| COc1cc(/C=C2\NC(=O)C(Cc3cc(OC)c(OC)c(C)c3OC)N(C(C)=O)C2=O)c(OC)c(C)c1OC (stereo unspecified) |  | > 100 µM |  | > 100 µM |  | > 100 µM |  | > 100 µM |  |  |  | > 100 µM |  | > 100 µM |  | > 100 µM |  | > 100 µM | > 100 |  |
| NNC(=O)C(=O)NN=C(C(Cl)(Cl)CO)C(Cl)(Cl)CO |  | 86.8 µM |  | > 100 µM |  | > 100 µM |  | > 100 µM |  |  |  | 61.2 µM |  | > 100 µM |  | > 100 µM |  | > 100 µM | 61.2 |  |
| O=C(CCCC(=O)Nc1ccc(Cl)cc1Cl)CC(=O)c1ccc2ccccc2c1 |  |  |  | > 100 µM |  | > 100 µM |  | > 100 µM |  |  |  | > 100 µM |  | > 100 µM |  | > 100 µM |  | > 100 µM | > 100 |  |
| O=C1c2ccccc2N2OC3(N4CCOCC4)CCCC3C12c1ccccc1 (stereo unspecified) |  | > 100 µM |  | > 100 µM |  | > 100 µM |  | > 100 µM |  |  |  | > 100 µM |  | > 100 µM |  | > 100 µM |  | > 100 µM | > 100 |  |
| O=C(c1cccs1)c1c(C(F)(F)F)n([O-])c2cc(Cl)c(Cl)cc2[n+]1=O |  |  | 2.18 µM | 4.04 µM |  |  | 1.96 µM | 3.79 µM | 0.647 µM | 2.07 µM | 0.719 µM | 1.94 µM | 1.77 µM | 3.46 µM | 0.51 µM | 1.32 µM | 0.756 µM | 1.91 µM | 0.0617 | < 0.0387 |
| Cc1ccc(NC(=O)c2cc(S(=O)(=O)Nc3nnc(-c4ccccc4)c(-c4ccccc4)n3)c(SCc3ccccc3)cc2Cl)cc1 |  |  | 22 µM | 41.6 µM | 20.4 µM | 57.1 µM | 21.4 µM | 56 µM | 19.4 µM | 42.2 µM |  |  | 36.1 µM | > 100 µM | 19.4 µM | 42.2 µM | 33.9 µM | > 100 µM | > 100 | 49.5 |
| OC(c1ccccc1Br)(c1ccccc1Br)C(F)(F)F |  | 85.2 µM |  | > 100 µM |  |  |  | 26.5 µM |  |  |  | > 100 µM |  | 52.8 µM |  | 38.9 µM |  | 35.5 µM |  |  |
| CC1NOC(=O)C1N=Nc1ccc(Cl)cc1Cl (stereo unspecified) |  | 46.5 µM |  | 77.2 µM |  | 55.8 µM |  | 63.4 µM |  |  |  | > 100 µM |  | > 100 µM |  | 68.6 µM |  | 41.9 µM | > 100 |  |
| COc1cc2nnc3c4cccnc4[nH]c3c2cc1OC | 2.35 µM and 1.48 µM | 21.9 µM and 7.45 µM | 8.47 µM and 2.29 µM | 36 µM and 9.24 µM | 9.04 µM and 2.77 µM | 42.4 µM and 15.4 µM | 5.44 µM and 1.94 µM | 21.4 µM and 5.11 µM | 3.14 µM and 2.69 µM | 50 µM and > 100 µM | 2.79 µM and 1.73 µM | 11.4 µM and 3.52 µM | 13.5 µM and 2.26 µM | 37.1 µM and 5.61 µM | 9.72 µM and 2.43 µM | 50 µM and 6.92 µM | 1.46 µM and 0.319 µM | 7.1 µM and 1.63 µM |  |  |
| CC12OC(=O)C(C#N)C1(C)C1C(=O)CCCC12 (stereo unspecified) |  | > 100 µM |  | > 100 µM |  | > 100 µM |  | > 100 µM |  |  |  | > 100 µM |  |  |  | > 100 µM |  | > 100 µM | > 100 |  |
| CCCCCCCCOCC(COC(=O)CCCCCCC)OC(=O)CCCCCCC (stereo unspecified) |  |  |  | > 100 µM |  | > 100 µM |  | > 100 µM |  |  |  |  |  | > 100 µM |  | > 100 µM |  | > 100 µM | > 100 |  |
| CC(C)C[C@@H]1NC(=O)[C@@H]2CCCN2C(=O)[C@@H]2CCCN2C(=O)[C@H](CC(C)C)NC(=O)[C@H](CO)NC(=O)[C@H](CCCCN)NC(=O)[C@H]([C@H](C)O)NC(=O)[C@@H]2CSSC[C@@H](NC1=O)C(=O)N[C@@H](Cc1ccccc1)C(=O)N1CCC[C@H]1C(=O)N[C@@H](CC(=O)O)C(=O)NCC(=O)N[C@@H](CCCN=C(N)N)C(=O)N2 (cyclo(C[aThr]KSLPPL[dC]FPDGR); disulfide 1-9) |  |  | > 50 µM | > 50 µM | > 50 µM | > 50 µM | > 50 µM | > 50 µM | > 50 µM | > 50 µM | > 50 µM | > 50 µM | > 50 µM | > 50 µM | > 50 µM | > 50 µM | > 50 µM | > 50 µM | > 50 | > 50 |
| C1CCC(N=C2N(C3CCCCC3)C(=NC3CCCCC3)N2C2CCCCC2)CC1 |  | > 100 µM |  | > 100 µM |  | > 100 µM |  |  |  |  |  |  |  | > 100 µM |  | > 100 µM |  | > 100 µM | > 100 |  |
| COC(=O)C(C(=O)C(=O)Nc1c(Cl)cc([N+](=O)[O-])cc1Cl)c1csc(-n2nc(C3=CCCCC3)cc2-c2ccccc2)n1 (stereo unspecified) |  | > 100 µM |  | > 100 µM |  | > 100 µM |  | > 100 µM |  |  |  | > 100 µM |  | > 100 µM |  | > 100 µM |  | > 100 µM | > 100 |  |
| COc1ccc(/C=C2\C(=O)N(NC(C)=O)c3ccccc32)cc1 |  | 93.8 µM |  | > 100 µM |  | > 100 µM |  | > 100 µM |  |  |  | > 100 µM |  | > 100 µM |  | > 100 µM |  | > 100 µM | > 100 |  |
| CCc1ccc(Nc2cc(C)c3ccc(O)cc3n2)cc1 | 11.3 µM | 24.8 µM | 12.6 µM | 25.2 µM | 13 µM | 32.1 µM | 19.8 µM | 54.3 µM | 3.12 µM | 13.7 µM | 5.74 µM | 19.1 µM | 11.5 µM | 24.3 µM | 5.06 µM | 20.3 µM | 6.07 µM | 19.9 µM |  |  |
